Here are results for 93 compounds from a melting point compilation (Tetko et al.; mined from patent text by program, amines drawn as free bases though some values may be those of a salt).

Some results are limits rather than exact numbers.

`O=c1cc(-c2ccc(OCc3ccccc3)c(OCc3ccccc3)c2)oc2cc(OCCCCl)ccc12` showed a melting point of 153 °C.
`CNc1nc(CCN2CCC(Nc3nc4ccccc4n3Cc3ccc(F)cc3)CC2)c(C)s1` showed a melting point of 182 °C.
With `COc1ccc2c(c1OC)C(=O)C(O)=C(C)C2=O` the figure was 218 °C; with `CCCN1C(=O)N2C[C@@H](Cc3ccccc3)N=C2c2[nH]c(C3(O)CCCC3)nc21`, 110 to 115 °C; with `CCOC(=O)C=Cc1ccc(Oc2ccc([N+](=O)[O-])cc2)c(Cl)c1Cl`, 145 to 146 °C.
With `NCC1Cc2cccc(-c3ccsc3)c2O1` (stereo not drawn) the figure was over 200 °C; with `O=C(Nc1ccc(Cl)nc1)c1ccccc1`, 118 to 120 °C; with `Cn1nnc(-c2cc3c(Oc4ccc(Cl)cc4)cncc3s2)n1`, 131 to 133 °C.
On to `CC(C)Oc1cc(C(=O)O)n(Cc2ncc(C(F)(F)F)cc2Cl)n1`, for which the melting point was 124 to 125 °C.
Take `CCCc1ncc(CC(=O)O)s1`: the melting point was 95 °C.
`CC(=O)n1c2ccccc2c2nc3ccccc3cc21`: the melting point fell in the range of 163 to 165 °C.
For `O=c1[nH]c(-c2cccc3ccccc23)nc2ccc(N3CCOCC3)cc12` the value was 291 to 293 °C.
`COC(c1ccccc1)C1CCCCCC(Cc2ccccc2)C1=O` (stereo not drawn) yielded a melting point of 83 to 84 °C.
For `C[C@H](C(=O)O)[C@H](O)c1ccccc1` the value was 89 to 90 °C; for `CN1CCC(NC(=O)c2cc(Cl)cc3oc(-c4ccccc4)nc23)CC1`, 170 to 172 °C.
With `C[C@H](NC(=O)c1c[nH]c2ncc(-c3cccs3)nc12)C(C)(C)C` the figure was 311 to 312 °C.
For `O=C(O)c1ccc(C(=O)NS(=O)(=O)c2ccc(Cl)cc2)cc1` the value was 285 to 287 °C.
`CC(=O)NC[C@H]1CN(c2cc(F)c(N3CCC(n4nnc(N5CCNCC5)n4)CC3)c(F)c2)C(=O)O1` returned a melting point of 180 to 185 °C.
With `O=C(c1ccc(Cl)cc1)c1c(Cl)nc2n(c1=O)CCS2` the figure was 174 °C; with `OC1(c2ccc(C(F)(F)F)cc2)CCNCC1`, 130 to 132 °C.
With `CNC(=O)CCC(=O)c1ccc(OCC(O)CNC(C)C)cc1` (stereo not drawn) the figure was 175 to 178 °C; with `CC1(C)CC(NC=O)CC(C)(C)N1`, 153 °C.
As for `CNC(=C[N+](=O)[O-])NCc1ccc(Cl)nc1Cl`, the melting point was 211 to 213 °C.
`Fc1ccc(-c2nccc3c(CCl)cccc23)cc1` registered a melting point of 110 to 112 °C.
For `CCOC(=O)c1conc1-c1cccc(C#N)c1` the value was 135 to 137 °C; for `COc1ccccc1Oc1c(NS(=O)(=O)c2ccc(C(C)(C)C)cc2)nc(-c2ncccn2)nc1OCCOc1ncc(-c2ccccn2)cn1`, 149 to 157 °C; for `Cc1cc(C(=O)N2Cc3cccn3Cc3ccccc32)ccc1C1=CCCCC1C` (stereo not drawn), 132 to 133 °C.
Regarding `CCC(CN1CCCC1)C(=O)c1cc(-c2ccccc2)no1` (stereo not drawn), the melting point was 68 to 69 °C.
For `CCCc1nc2c(N)nc3ccccc3c2n1CCCC(CC(C)C)=NO` the value was 207 to 209 °C; for `CCOC(=O)c1ncn2c(C(F)F)cc(-c3ccc(C(F)(F)F)cc3)nc12`, 219 °C.
`COCCN1CCc2cc(Nc3ncc(Cl)c(Nc4cc(C(N)=O)ccc4OC)n3)c(OC)cc2CC1` returned a melting point of 218 to 225 °C.
For `O=c1[nH]c(=O)n(CCCCN2CC=C(c3ccc(Cl)cc3)CC2)c2ccccc12` the value was 162 to 166 °C.
With `COC(=O)c1cncc(OC2SCC(O)C(O)C2O)c1` (stereo not drawn) the figure was 137 °C.
On to `CN=C(NS(=O)(=O)c1ccc(Cl)cc1)SC`, for which the melting point was in the range of 121 to 123 °C.
In the case of `O=C(O)COc1cccc2c1CCc1sc(NC(c3ccccc3)c3ccccc3)nc1-2`, the melting point lay in the range of 250 to 252 °C.
Regarding `CCOC(=O)c1cnn(CC(O)c2ccccc2)c1NC(=S)NC(=O)c1ccccc1` (stereo not drawn), the melting point fell in the range of 171 to 172 °C.
With `CSc1nc(Cl)c2cc(Br)ccc2n1` the figure was 124 °C; with `CCCOc1ccc(C=CC(=O)N2CCN(C)CC2)cc1-c1nc2c(C)cccc2c(=O)[nH]1`, 184 to 185 °C.
Take `CC(C)Sc1nc(-c2nn(C)c(OC(F)F)c2Cl)c(F)cc1Cl`: the melting point fell in the range of 63 to 64 °C.
With `O=C(NCC#CCN1CCN(c2ncccn2)CC1)c1nsc2ccccc12` the figure was 102 to 104 °C; with `COc1c(Cc2ccccc2)cc(C(N)=O)c2ccccc12`, 199 to 201 °C; with `CC(C)(C)C(=O)Nc1cc(Cl)ccn1`, 86 to 87 °C.
With `CC(=O)NC1CCC(=O)c2ccccc21` (stereo not drawn) the figure was 128 to 130 °C.
`O=C1NC(=S)SC1=Cc1ccc2c(c1)N(CCc1ccc(F)c(F)c1)C(=O)CO2` came in with a melting point of 263 to 266 °C.
`CCOC(=O)CN1C(=O)C(N=[N+]=[N-])CCc2ccc(OC)cc21` (stereo not drawn) had a melting point of 90 to 91 °C.
On to `O=C(C=Cc1ccc(N2CCOCC2)cc1)c1ccc2c(c1)CCCC2`, for which the melting point fell in the range of 138 to 140 °C.
With `Cc1ccc(-c2cc(C(F)(F)F)nn2-c2ccc(S(=O)(=O)Cl)cc2)cc1` the figure was 97 to 98 °C.
`COC(=O)c1ccc(-c2coc3ccc(-c4nnc(C)o4)cc23)cc1` registered a melting point of 208 to 209 °C.
With `O=C(O)[C@@H]1CCCN1S(=O)(=O)CCS` the figure was 99 to 101 °C.
With `FCc1ccc(-c2ccc(-c3cn([C@H]4CN5CCC4CC5)nn3)s2)cc1` the figure was 199 °C; with `O=C1OC(=O)c2cc(N=C=S)ccc21`, 106 to 108 °C; with `O=C(CCc1ccccc1)Nc1cccc(C(=O)NN=C2C(=O)Nc3ccc(I)cc32)c1`, 293 °C.
Consider `CCOC(=O)c1c(C)[nH]c(-c2ccncc2)c1C`, for which the melting point fell in the range of 180 to 182 °C.
For `COc1ccc2nc3c(cc2c1)c(C(N)=O)nn3C` the value was 268 to 270 °C; for `Cc1ccccc1NC(=O)Nc1ccc(NC(=O)C(CC(=O)Nc2ccc(C(=O)O)cc2)c2ccccc2)cc1` (stereo not drawn), 169 °C; for `C#CCCn1ncc2c(N)c(C(=O)OCC)c(C)nc21`, 101 to 103 °C.
With `CCC12CCC3C4CCC(OC)=CC4=CCC3C1C=CC2=O` (stereo not drawn) the figure was 159 to 161 °C; with `O=C(O)Cc1ccc2c(c1)sc1ccccc12`, 174 to 176 °C; with `Cc1cc2oc(C(=O)O)cc(=O)c2c(C)c1Cl`, 289 to 290 °C.
On to `CCOc1ccc(C(=O)c2csc(-c3ccc(OCC)c(OCC)c3)n2)cc1OCC`, for which the melting point fell in the range of 128 to 129 °C.
With `O=C(O)Cc1ccc2[nH]c(=O)[nH]c2c1` the figure was 161 °C; with `CCCCCCCCCCc1c(C(=O)O)sc2c1sc1c(CCCCCCCCCC)c(C(=O)O)sc12`, 280 °C.
With `CC(=O)OCc1ccc2oc(=O)c(C(=O)Oc3ccccc3C#N)cc2c1` the figure was 181 to 183 °C.
For `C=C1C(=C)C2OC1c1cc3c(OC)ccc(OC)c3cc12` the value was 205 to 206 °C; for `COc1c(O)c(C)c2c(c1OC)Nc1ccccc1S2`, 218 to 220 °C.
On to `Cc1nc(N)sc1C(=O)c1cccnc1`, for which the melting point lay within 287 to 288 °C.
With `CCc1nnc(-c2ccc(-c3ccc(C(=O)N4CCCc5cc6c(cc54)C4(CCN(C)CC4)CO6)cc3)c(C)c2)o1` the figure was 241 to 243 °C.
For `Oc1cccc2c1CCCC2N1CCCC1` (stereo not drawn) the value was 151 to 153 °C.
Compound `COc1ccc2c(c1)C(=O)N(c1ccc3ccoc3c1)C2` came in with a melting point of 141 to 143 °C.
`COc1ccccc1C1(N[C@H](CO)c2ccccc2)C(=O)Nc2ccc(Cl)cc21` (stereo partly drawn) came in with a melting point of 172 to 173 °C.
Regarding `CC1(C)OCC(CCBr)CO1`, the melting point stood at 18 °C.
In the case of `CCOC(=O)c1ccc(CBr)cc1OC`, the melting point lay within 70 to 71 °C.
Compound `COc1cc(NC(=O)OCCCN2CCN(c3ccc(Cl)cc3)CC2)cc(OC)c1OC` returned a melting point of 174 °C.
The compound `CN(C#N)C(=O)CCC(=O)N(C)C#N` yielded a melting point of 112 to 114 °C.
With `BrCCCCOc1ccc(OCCCBr)cc1` the figure was 73 to 76 °C; with `COc1cc(CC(=O)O)ccc1SCc1sc(-c2ccc(C(F)(F)F)cc2)nc1C`, 181 to 182 °C; with `Cc1ccc(C)c(NC(=O)OC(C)(C)C)c1`, 103 to 104 °C.
`COCC(=O)N[C@H]1CC[C@H](CCN2CCN(c3nccc4c3OCC4)CC2)CC1`: the melting point amounted to 126 °C.
In the case of `Nc1cccc(Sc2cccc3c2C(=O)c2cccc(Sc4cccc(N)c4)c2C3=O)c1`, the melting point fell in the range of 292 to 293 °C.
With `CC1(C)CC(=O)c2c(N3CCC3)sc(-c3cc[nH]n3)c2C1`, the melting point fell in the range of 263 to 265 °C.
For `Fc1ccccc1Cn1nc(-c2nc(C(F)(F)F)cc(C(F)(F)F)n2)c2cccnc21` the value was 109 °C; for `O=C(O)C(Oc1ccccc1)(C(F)(F)F)C(F)(F)F`, 6 to 8 °C.
For `CC(c1oc2ccc(Br)cc2c(=O)c1-c1ccccc1)n1ncc2c(N)ncnc21` (stereo not drawn) the value was 239 to 240 °C.
For `COc1cc([N+](=O)[O-])c(Cl)cc1NC(=O)C1CCNCC1` the value was 167 to 170 °C.
In the case of `CC(C)(C)OC(=O)N1CCOc2ccc(Br)cc2S1(=O)=O`, the melting point amounted to 119 °C.
For the compound `CC(C)n1c(=O)nc(-c2cc3c(cc2Cl)OCO3)c2cc3c(cc21)OCO3`, the melting point fell in the range of 147 to 150 °C.
In turn, `O=C(O)Cc1cn(Cc2ccc(OCc3ccccc3)cc2)nc1-c1ccc(F)cc1` displayed a melting point of 194 to 195 °C.
On to `O=[N+]([O-])CS(=O)(=O)c1ccc2c(c1)CCN2`, for which the melting point amounted to 139 °C.
With `COc1cc2c(cc1OC)CN(C)C2` the figure was 80 °C.
In the case of `CC(C)(C)OC(=O)NC(CCOP(=O)(Oc1ccccc1)Oc1ccccc1)C(=O)OCc1ccccc1` (racemic), the melting point fell in the range of 63.5 to 64 °C.
Consider `N#Cc1cccnc1Oc1cccc(Cl)c1`, for which the melting point lay in the range of 88 to 90 °C.
With `CN1C(=N)N(c2ccc(Cl)cc2)CC1=O` the figure was 182 to 184 °C; with `CC(=O)c1ccc2c(c1)N(C)CCC2(C)C`, 46 to 48 °C.

What is called melting point is the temperature, or range, at which the solid turns liquid.
